Results from paper PMC10786692 (The Journal of Clinical Investigation, 2024).
Where “and” joins values, the source holds several entries; their conditions need not be identical. Equal values may be shown once.

Experiments:
[1] = system: phospho-(S345)Chk1; experiment: PBMC phospho-Chk1 immunofluorescence; assay type: in vivo, human; details: after 2-week dosing
Method: (§1) PD sampling took place at baseline (within 7 days prior to dosing) and between days 15 and 22 of dosing (day 14 for intermittent dosing cohorts). PD samples included PBMCs and tumor biopsies. PBMCs were analyzed by immunofluorescence for γ^(S139)H2AX, p-^(S345)Chk1, and total Chk1, as described in Supplemental Methods. Paired tumor biopsies were formalin fixed and analyzed for nuclear p-^(S635)Rad50 and γH2AX by IHC.
PBMCs were isolated from blood using BD Vacutainer® CPT™ Cell preparation tubes with sodium citrate (BD Biosciences, Wokingham, UK) and fixed with 4% formalin containing 1% Triton™ X-100 (Sigma-Aldrich, St. Louis, MO). […] A Carl Zeiss LSM 700 confocal laser scanning fluorescence microscope (Zeiss, Jena, Germany) was used to visualize and capture images of the PBMCs. Fluorescent nuclear intensity for phospho-(S345) and total Chk1 in individual PBMC cells were quantified using the IN Cell Investigator Developer Toolbox v1.9 software (GE Healthcare Biosciences, Piscataway, NJ). For the phospho(S345)- and total Chk1 assays: the raw data values (fluorescent nuclear intensity for PBMCs), the percentage change for phospho(S345) biomarker was calculated for each subject by comparing the levels measured at each post-dose time point to pre-dose levels measured at baseline. […]
Peripheral blood was drawn into 8 mL EDTA tubes (Vacutainer, BD) and analyzed within 24 hours. […]

[2] = system: γH2AX; experiment: Paired tumor biopsy γH2AX IHC; assay type: in vivo, human; details: four paired biopsies, after 2-week dosing
Method: as §1, with “IHC. […]” for “IHC.”
signatures for heatmap construction were used from MSigDB (49) and cell-type-related transcripts from NanoString annotations and Bindea et al (50). Cell-type deconvolution was performed using CIBERSORTx (51).
Supplementary Pharmacodynamic methods
Formalin fixed paraffin-embedded tumor samples were used. […] H-score was calculated using HALO image analysis (Indica Labs). […] Nuclear ATM (Abcam 32420) IHC staining was carried out on the Ventana autostainer, using DAB detection and assessed by H-score, but samples were only deemed acceptable if lymphocyte staining (internal control) was at least 2+ (moderate) intensity. Cyclin E1 (Invitrogen HE12) staining was carried out on the Ventana autostainer, using DAB detection and the H-score was quantified using HALO image analysis (Indica Labs). Ki67 (Mib-1, Dako M7240) was scored by percent nuclear positivity using a global unweighted method, scoring 4 areas of 100 cells. […]

[3] = system: tumor biopsies; experiment: CIBERSORTx cell-type deconvolution of tumor biopsy RNA-Seq; assay type: in vivo, human; details: individual patients
Method: signatures for heatmap construction were used from MSigDB (49) and cell-type-related
transcripts from NanoString annotations and Bindea et al (50). Cell-type deconvolution was
performed using CIBERSORTx (51). […]

[4] = preclinical monotherapy; cited from earlier work

C[C@@H]1COCCN1c1cc(C2([S@](C)(=N)=O)CC2)nc(-c2cc[nH]c3nccc2-3)n1 [ceralasertib]
p-Chk1 levels in PBMCs with treatment [1]: not consistent
Number of γH2AX-positive cells in paired tumor biopsies [2]: increase
CIBERSORTx proportion CD8, on-treatment tumor biopsy ([3]; D15 PR): 0
CIBERSORTx proportion M0 Mac, on-treatment tumor biopsy ([3]; D15 PR): 0.1391 and 0.5318 and 0.5438
CIBERSORTx proportion M1 Mac, on-treatment tumor biopsy ([3]; D15 PR): 0.1372 and 0 (2×)
CIBERSORTx proportion M2 Mac, on-treatment tumor biopsy ([3]; D15 PR): 0.1138 and 0.03909 and 0.06393
CIBERSORTx proportion Naive B, on-treatment tumor biopsy ([3]; D15 PR): 0.01104 and 0.04034 and 0
CIBERSORTx proportion Naive CD4, on-treatment tumor biopsy ([3]; D15 PR): 0 and 0.0004844 and 0.004743
CIBERSORTx proportion Neutrophils, on-treatment tumor biopsy ([3]; D15 PR): 0.03549 and 0.1415 and 0.09333
CIBERSORTx proportion Treg, on-treatment tumor biopsy ([3]; D15 PR): 0
CIBERSORTx proportion active DC, on-treatment tumor biopsy ([3]; D15 PR): 0.02084 and 0.01306 and 0.1026
CIBERSORTx proportion active NK, on-treatment tumor biopsy ([3]; D15 PR): 0.09471 and 0 (2×)
CIBERSORTx proportion resting DC, on-treatment tumor biopsy ([3]; D15 PR): 0
CIBERSORTx proportion resting NK, on-treatment tumor biopsy ([3]; D15 PR): 0 and 0.07254 and 0.04433
CIBERSORTx proportion CD8, on-treatment tumor biopsy ([3]; D15 non-PR): 0 (3×) and 0.09128
CIBERSORTx proportion M0 Mac, on-treatment tumor biopsy ([3]; D15 non-PR): 0.07738 and 0.2479 and 0.5291 and 0.2524
CIBERSORTx proportion M1 Mac, on-treatment tumor biopsy ([3]; D15 non-PR): 0 (2×) and 0.002883 and 0.04168
CIBERSORTx proportion M2 Mac, on-treatment tumor biopsy ([3]; D15 non-PR): 0.325 and 0.00838 and 0.1257 and 0.0276
CIBERSORTx proportion Naive B, on-treatment tumor biopsy ([3]; D15 non-PR): 0 (2×) and 0.07794 and 0.002559
CIBERSORTx proportion Naive CD4, on-treatment tumor biopsy ([3]; D15 non-PR): 0
CIBERSORTx proportion Neutrophils, on-treatment tumor biopsy ([3]; D15 non-PR): 0 (2×) and 0.09632 and 0.04836
CIBERSORTx proportion Treg, on-treatment tumor biopsy ([3]; D15 non-PR): 0 (2×) and 0.01681 and 0.03886
CIBERSORTx proportion active DC, on-treatment tumor biopsy ([3]; D15 non-PR): 0.01626 and 0.04266 and 0 (2×)
CIBERSORTx proportion active NK, on-treatment tumor biopsy ([3]; D15 non-PR): 0.08744 and 0 (2×) and 0.005269
CIBERSORTx proportion resting DC, on-treatment tumor biopsy ([3]; D15 non-PR): 0 (3×) and 0.002776
CIBERSORTx proportion resting NK, on-treatment tumor biopsy ([3]; D15 non-PR): 0 and 0.1019 and 0.06313 and 0.04038
GI50 [4]: ~1000 nM
